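In this assay, cells in 96-well plates receive the compound at five concentrations for 48 hours. Endpoints are linearly interpolated between the surrounding concentrations. GI50 is the concentration that inhibits growth by half.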 Calls of active or inactive are those of the source. No stated cut-off is given here; in the data, active = GI50 up to about 1.1 µM and inactive = higher.
Assays:
Assay in all cases: NCI anticancer screen, dose series, 48 h
[1] = test system: BT-549
[2] = test system: SK-MEL-5
[3] = test system: HOP-62
[4] = test system: SN12C
[5] = test system: MDA-N
[6] = test system: SF-539
[7] = test system: Malme-3M
[8] = test system: SF-268
[9] = test system: PC-3
[10] = test system: HCT-116
[11] = test system: T47D
[12] = test system: OVCAR-8
[13] = test system: EKVX
[14] = test system: COLO 205
[15] = test system: HOP-92
[16] = test system: MCF7
[17] = test system: IGROV-1
[18] = test system: MDA-MB-435
[19] = test system: A549
[20] = test system: OVCAR-3
[21] = test system: SK-MEL-28
[22] = test system: HL-60
[23] = test system: SK-OV-3
[24] = test system: NCI-H23
[25] = test system: SF-295
[26] = test system: 786-0
[27] = test system: NCI/ADR-RES
[28] = test system: MOLT-4
[29] = test system: UO-31
[30] = test system: KM12
[31] = test system: K562
[32] = test system: SNB-19
[33] = test system: RPMI-8226
[34] = test system: SNB-75
[35] = test system: A498
[36] = test system: HT-29
[37] = test system: NCI-H522
[38] = test system: M14
[39] = test system: OVCAR-4
[40] = test system: NCI-H226
[41] = test system: UACC-62
[42] = test system: SR
[43] = test system: LOX IMVI
[44] = test system: DU-145
[45] = test system: SW-620
[46] = test system: CAKI-1
[47] = test system: CCRF-CEM
[48] = test system: SK-MEL-2
[49] = test system: RXF 393
[50] = test system: HCT-15
[51] = test system: ACHN
[52] = test system: Hs-578T

## CCC(=O)Nc1ccc(/N=C/c2cccc(Oc3ccccc3)c2)cc1
[1]
  GI50: > 100 µM (inactive)
[2]
  GI50: 33 µM (inactive)
[3]
  GI50: 37.2 µM (inactive)
[4]
  GI50: > 100 µM (inactive)
[5]
  GI50: 40.1 µM (inactive)
[6]
  GI50: 16.4 µM (inactive)
[7]
  GI50: > 100 µM (inactive)
[8]
  GI50: 42.1 µM (inactive)
[9]
  GI50: 64.4 µM (inactive)
[10]
  GI50: 39.8 µM (inactive)
[11]
  GI50: 91 µM (inactive)
[12]
  GI50: 22.3 µM (inactive)
[13]
  GI50: 65.5 µM (inactive)
[14]
  GI50: 44.6 µM (inactive)
[15]
  GI50: 85.3 µM (inactive)
[16]
  GI50: 44.1 µM (inactive)
[17]
  GI50: 63.4 µM (inactive)
[18]
  GI50: 47.3 µM (inactive)
[19]
  GI50: > 100 µM (inactive)
[20]
  GI50: 63.8 µM (inactive)
[21]
  GI50: 86.9 µM (inactive)
[22]
  GI50: 26.7 µM (inactive)
[23]
  GI50: > 100 µM (inactive)
[24]
  GI50: > 100 µM (inactive)
[25]
  GI50: > 100 µM (inactive)
[26]
  GI50: 42.4 µM (inactive)
[27]
  GI50: 42.3 µM (inactive)
[28]
  GI50: 23.9 µM (inactive)
[29]
  GI50: 70.5 µM (inactive)
[30]
  GI50: > 100 µM (inactive)
[31]
  GI50: 24.4 µM (inactive)
[32]
  GI50: > 100 µM (inactive)
[33]
  GI50: 21.8 µM (inactive)
[34]
  GI50: > 100 µM (inactive)
[35]
  GI50: > 100 µM (inactive)
[36]
  GI50: 49.2 µM (inactive)
[37]
  GI50: > 100 µM (inactive)
[38]
  GI50: 46.6 µM (inactive)
[39]
  GI50: 55.3 µM (inactive)
[40]
  GI50: 18.2 µM (inactive)
[41]
  GI50: 95.7 µM (inactive)
[42]
  GI50: 16.2 µM (inactive)
[43]
  GI50: 29.6 µM (inactive)
[44]
  GI50: 46.2 µM (inactive)
[45]
  GI50: 37 µM (inactive)
[46]
  GI50: > 100 µM (inactive)
[47]
  GI50: 12.6 µM (inactive)
[48]
  GI50: > 100 µM (inactive)
[49]
  GI50: 50.9 µM (inactive)
[50]
  GI50: > 100 µM
[51]
  GI50: > 100 µM (inactive)
[52]
  GI50: > 100 µM (inactive)
